Measurements: patent publication US7615380B2, “Methods for modulating an immune response by modulating KRC activity” (President and Fellows of Harvard College, priority 2001, dated 2009)

Key:
[1] = test system: MAPK (ERK, p38, JNK); assay: MAPK activity in Jurkat cells (PathDetect reporter, immunoprecipitation-kinase assay); assay type: cell-based, human
Method: FIG. 20(A) Jurkat cells were transiently transfected with AP-1 Luciferase reporter along with KRC and RasN17 DN vectors. 24 hours later cells were pretreated with Rottlerin (10 μM) and stimulated for 6 hours with PMA plus ionomycin. Luciferase activity was measured as above. FIG. 20(B) Jurkat cells were transfected with a GAL4 Luciferase reporter along with a GAL4 DNA binding domain, GAL4-ATF2, or GAL4-ELK1 with or without KRC. 24 hours later, cells were stimulated with PMA plus ionomycin and analyzed for Luciferase activity as above. FIG. 20(C) Jurkat cells were transiently transfected with FLAG-JNK2, and either Vector, KRC, or MKK7. 48 hours later, cells were stimulated with PMA plus ionomycin for 6 hours and JNK activity was determined by immunoprecipitation/kinase assay. […]
KRC may enhance AP-1 function indirectly through the modulation of MAPK activity, kinases downstream of Ras that are known to potently stimulate AP-1 function (Binetruy, B., et al. (1991) Nature 351:122-127; Deng, T., and M. Karin (1994) Nature 371:171-175; Murphy, L., et al. (2002) Nat. Cell Biol. 4: 556-564). […] Co-expression of KRC with HA-ERK1, myc-ERK2, Flag-P38 and Flag-JNK2 was performed and the activity of each kinase was measured using an immunoprecipitation-kinase assay with specific substrates, GST-Elk1, GST-ATF2 and GST-Jun for each MAPK. […]

[2] = test system: TRAF2, TRAF5, TRAF6; assay: Coimmunoprecipitation with TRAF family members in 293T cells; assay type: binding
From the text: FIGS. 1(A)-1(E) show the interaction of amino acid residues 204 to 1055 of KRC (“KRC tr”) (amino acids 204-1055 of SEQ ID NO:2) with TRAF family members. […] FIG. 1(B) upper panel depicts the interaction of KRC tr with TRAFs in mammalian cells. 293 T cells were cotransfected with the indicated FLAG-TRAFs and MYC-tagged KRC tr, and immunoprecipitated with anti-MYC antibody, followed by blotting with anti-FLAG antibody. FIG. 1(B) lower panel depicts the direct western blot of overexpressed TRAFS and KRC tr with anti-FLAG or anti-MYC. FIG. 1(C) depicts the differential interaction of KRC tr with TRAF proteins. The coimmunoprecipitation experiments were performed in the presence of 300 mM NaCl instead of 137 mM NaCl. FIG. 1(D) depicts KRC tr interacting with TRAF2 lacking the Ring finger domain. 293 T cells were transfected with MYC-KRC tr and with FLAG tagged TRAF2 or with FLAG-tagged TRAF2 (87-501). FIG. 1(E) depicts the interaction of KRC tr with endogenous TRAF2 but not with endogenous TRAF5 or TRAF6. 293T were transfected with an expression vector encoding an MYC-tagged KRC tr, or empty plasmid. Lysates from 293T cells were incubated with anti-MYC antibodies. Coimmunoprecipitated endogenous TRAF was detected by western blotting with specific anti-TRAF antibodies.
Effectene™ mediated transfections into 293T cells were performed. […]

KRC: full-length KRC zinc finger protein (SEQ ID NO:2) overexpressed from an expression vector
MAPK activity, immunoprecipitation-kinase assay ([1]; ERK1, ERK2, P38, JNK2): no detectable effect on any of the MAPKs
MAPK / p38 activity, PathDetect reporter (ELK-1, ATF2) ([1]; Jurkat cells): unable to modulate either MAPK or p38 activity
interaction with TRAF family members [2]: higher affinity with TRAF2 than with TRAF5 and TRAF6
